Data reported in PubChem BioAssay (NCI).
Where “and” joins values, the source holds several entries; their conditions need not be identical. Equal entries are not always repeated.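 Method: 48-hour compound exposure of cells in 96-well plates, five concentrations, linear interpolation of endpoints. GI50 marks 50% less growth. TGI marks complete inhibition of growth.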

Assays:
Experiment in all cases: NCI-60 cell line screen, 48 h
[1] = system: CAKI-1 renal
[2] = system: DU-145 prostate
[3] = system: EKVX NSCLC
[4] = system: HL-60(TB) leukemia
[5] = system: HS 578T breast
[6] = system: NCI/ADR-RES ovarian
[7] = system: SK-MEL-28 melanoma
[8] = system: SK-MEL-5 melanoma
[9] = system: SK-OV-3 ovarian
[10] = system: SNB-19 CNS
[11] = system: SNB-75 CNS
[12] = system: UACC-257 melanoma

Structure (SMILES)	TGI [1]	TGI [2]	TGI [3]	TGI [4]	TGI [5]	TGI [6]	TGI [7]	TGI [8]	TGI [9]	TGI [10]	TGI [11]	TGI [12]	GI50 [4]	GI50 [6]	GI50 [9]	GI50 [12]
O=P1(Cc2ccccc2)N(Cc2ccccc2)[C@@H]2CCCC[C@H]2N1Cc1ccccc1	23.7 µM	27.1 µM	22.4 µM	19.8 µM	26.5 µM	23 µM	33.2 µM	3.57 µM	28 µM	24.2 µM	21.1 µM	20.1 µM				
CCC1CC(O)c2c(O)c3c(c(O)c2C1O)C(=O)c1cccc(O)c1C3=O (stereo not given) (tested in a mixture with another compound)	0.0706 µM	0.135 µM and 0.651 µM	0.0864 µM and 0.192 µM	0.0866 µM and 0.0744 µM	0.331 µM	0.295 µM	0.0712 µM and 0.0612 µM	0.0374 µM and 0.0138 µM	5.7 µM	0.929 µM and 1.34 µM	0.049 µM and 0.0426 µM	0.0941 µM and 0.0404 µM	0.0177 µM	0.0101 µM	0.0111 µM	0.0101 µM
C=C1CCCCCCCCC/C=C/1SCCCSC	> 100 µM	> 100 µM	> 100 µM	> 100 µM	> 100 µM	> 100 µM	> 100 µM	> 100 µM	> 100 µM	> 100 µM		> 100 µM				
Cc1[nH]n(-c2nc(O)c(-c3ccccc3)c(=O)[nH]2)c(=O)c1CCO	> 100 µM	> 100 µM	> 100 µM	> 100 µM	> 100 µM	> 100 µM	> 100 µM	> 100 µM	> 100 µM	> 100 µM	> 100 µM	> 100 µM				
NCCCNCCCCN1CCOC1=O	> 100 µM	> 100 µM	> 100 µM	> 100 µM	> 100 µM	> 100 µM	> 100 µM	> 100 µM	> 100 µM	> 100 µM	> 100 µM	> 100 µM				
Cc1ccc(C(=O)NCc2ccccc2)cc1N=NN(C)C	> 100 µM	> 100 µM	> 100 µM	> 100 µM	> 100 µM	> 100 µM	> 100 µM	> 100 µM	> 100 µM	> 100 µM		88.2 µM				
Cc1ccc(S(=O)(=O)C2=C(C(C)C)N=NC2(C)C)cc1	> 100 µM	> 100 µM	> 100 µM	> 100 µM	> 100 µM	> 100 µM	> 100 µM	> 100 µM		> 100 µM	> 100 µM	> 100 µM				
CN1CCc2c(sc3[nH]c(=S)[nH]c(=S)c23)C1	> 100 µM	> 100 µM	> 100 µM	> 100 µM	> 100 µM	> 100 µM	> 100 µM	> 100 µM	> 100 µM	> 100 µM	> 100 µM	> 100 µM				
NCCCN(CCCN)CCc1cn(C(=O)c2ccccc2)cn1	16.1 µM	11.3 µM	23.3 µM	10.8 µM	86.5 µM	53.9 µM	33.2 µM	21 µM	27.5 µM	33.6 µM	17.7 µM	25.2 µM				
CC1CC(Nc2ccc(Br)cc2)N(C(=O)c2ccc(Br)cc2)O1 (stereo not given)	> 10 µM	> 10 µM	> 10 µM	> 10 µM	> 10 µM	> 10 µM	> 10 µM	> 10 µM	> 10 µM	> 10 µM	> 10 µM	> 10 µM				
CCOC(=O)C(Cc1ccc(O)cc1)Nc1nc(=O)c2c(=O)oc(Cl)cc2o1 (stereo not given)	16.6 µM	51.1 µM	25.5 µM	13.5 µM	11.1 µM	> 69.7 µM	21 µM	> 49 µM	27.7 µM	27.3 µM	18.6 µM	29.7 µM				
CN1CC=C(c2c(N)nc(N)[nH]c2=O)CC1	> 100 µM	> 100 µM	> 100 µM	> 100 µM	> 100 µM	> 100 µM	> 100 µM	> 100 µM	> 100 µM	> 100 µM	> 100 µM	> 100 µM				
N[C@H](Cc1ccc2oc3cc(=O)c4ccccc4c-3nc2c1)C(=O)O	> 100 µM	51.7 µM	> 100 µM	> 100 µM	> 100 µM	> 100 µM	> 100 µM	41.1 µM	> 100 µM	> 100 µM	> 100 µM	> 100 µM				
COc1ccc(C2c3cc4c(cc3OC(N3CCOCC3)C2C)OCO4)cc1 (stereo not given)	55.1 µM	> 100 µM	> 100 µM	91.2 µM	63 µM	> 91.2 µM	> 88 µM	72.4 µM		> 96.7 µM	> 100 µM	> 100 µM				
Cc1c2ccc3ccccc3c2c[n+]2ccccc12	> 100 µM	> 76 µM	> 44.1 µM	> 75.6 µM	14.9 µM	> 100 µM	28.7 µM	21.9 µM	83.2 µM	23.1 µM	14.3 µM	23.8 µM				
O=[N+]([O-])c1c(F)c(F)c2c(c1F)N(CCCCCl)c1ccccc1S2	19.3 µM	26.1 µM	41.3 µM	5.7 µM	74.4 µM	37.5 µM	10.9 µM	32.7 µM	34 µM	19.5 µM	17.2 µM	27.5 µM				
CN(C)CCCNc1ccc2ncn3c4ccc(O)cc4c(=O)c1c23	1.59 µM	21.2 µM	16.6 µM	13.1 µM	13.6 µM	> 100 µM	18.1 µM	9.57 µM	15.1 µM	20.1 µM	11.7 µM	24.5 µM				
CCOC(=O)c1c(OCC)[nH]c(=O)c(C(c2cccs2)c2c(O)c(C(=O)OCC)c(OCC)[nH]c2=O)c1O	65.4 µM	26.9 µM	32.7 µM	40.7 µM	> 100 µM	> 100 µM	43.6 µM	25.5 µM		39.8 µM	9.72 µM	36.9 µM				
